Measurements from patent publication US20080096807A1, “Cyclic vasoactive intestinal peptide receptor-2 agonists” (priority 2006, published 2008).
Bridge positions count the residues as written; N and C are the ends. Square brackets hold non-standard residues; d marks the D form. Peptide text beside a SMILES is read from it. ξ: configuration not given here. Thr(3ξ) = CC(O)[C@H](N)C(=O)O; αMeV = CC(C)[C@](C)(N)C(=O)O; Nle = CCCC[C@H](N)C(=O)O

T1: VPAC2 receptor (Homo sapiens, UniProt P41587)
T1 construct: The human T-lymphoid cell line Sup-Ti, which expresses the VPAC2 receptor; host or cells: Sup-T1 (Sup-Ti [sic]) human T-lymphoid cell line
T1 sequence (P41587 24-438): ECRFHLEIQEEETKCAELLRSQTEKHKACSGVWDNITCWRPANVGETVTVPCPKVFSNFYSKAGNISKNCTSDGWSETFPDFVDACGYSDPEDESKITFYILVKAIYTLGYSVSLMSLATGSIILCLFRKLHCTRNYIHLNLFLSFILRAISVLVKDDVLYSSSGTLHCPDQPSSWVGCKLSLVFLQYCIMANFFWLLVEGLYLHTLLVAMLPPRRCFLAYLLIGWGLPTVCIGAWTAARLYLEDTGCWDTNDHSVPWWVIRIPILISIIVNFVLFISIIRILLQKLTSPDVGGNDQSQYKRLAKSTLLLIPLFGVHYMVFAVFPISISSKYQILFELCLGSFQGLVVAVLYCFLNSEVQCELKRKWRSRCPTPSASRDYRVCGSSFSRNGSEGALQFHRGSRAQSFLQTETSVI

T2: human neutrophil elastase (Homo sapiens, UniProt P08246)
T2 sequence (P08246 30-247 limits assumed): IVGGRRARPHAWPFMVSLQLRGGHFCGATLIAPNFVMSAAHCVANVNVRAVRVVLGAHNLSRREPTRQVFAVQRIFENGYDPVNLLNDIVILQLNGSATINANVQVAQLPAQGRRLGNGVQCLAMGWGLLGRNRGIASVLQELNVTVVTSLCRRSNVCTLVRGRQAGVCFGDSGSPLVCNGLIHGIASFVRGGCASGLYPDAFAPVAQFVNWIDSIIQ

T3: VPAC2 receptor (human, UniProt P41587)
T3 sequence: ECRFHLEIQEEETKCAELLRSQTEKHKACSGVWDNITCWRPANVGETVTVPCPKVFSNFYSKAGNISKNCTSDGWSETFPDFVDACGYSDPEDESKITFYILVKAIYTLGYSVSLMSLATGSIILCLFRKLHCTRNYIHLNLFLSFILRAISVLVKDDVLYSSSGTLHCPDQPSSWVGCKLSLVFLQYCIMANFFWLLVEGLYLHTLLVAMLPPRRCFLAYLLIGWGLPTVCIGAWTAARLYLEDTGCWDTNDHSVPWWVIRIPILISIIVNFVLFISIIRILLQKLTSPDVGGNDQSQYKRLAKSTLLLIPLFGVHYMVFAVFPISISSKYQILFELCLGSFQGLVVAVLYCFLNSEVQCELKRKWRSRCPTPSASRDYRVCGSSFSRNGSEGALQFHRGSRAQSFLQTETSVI

B1: Ac-His-Ser-Asp-Ala-MeVal-Phe-Thr-Glu-Asn-Tyr-thr-Lys-Leu-Arg-Lys-Gln-Nle-Ala-Ala-Lys-Lys-Tyr-Leu-Asn-Asp-Leu-Leu-Lys-Gly-Gly-Thr-NH2 (peptide)
peptide: Ac-HSDA[αMeV]FTENYTKLRKQ[Nle]AAKKYLNDLLKGGT-NH2
modifications: lactam 21-25; not fully specified (residue 11); printed as Ac-His-Ser-Asp-Ala-MeVal-Phe-Thr-Glu-Asn-Tyr-thr-Lys-Leu-Arg-Lys-Gln-Nle-Ala-Ala-Lys-Lys-Tyr-Leu-Asn-Asp-Leu-Leu-Lys-Gly-Gly-Thr-NH2
B2: Ac-His-Ala-Asp-Ala-MeVal-Phe-Thr-Glu-Asn-Tyr-Thr-Lys-Leu-Arg-Lys-Gln-Nle-Ala-Ala-Lys-Lys-Tyr-Leu-Asn-Asp-Leu-Lys-Lys-Gly-Gly-Thr-NH2 (peptide)
peptide: Ac-HADA[αMeV]FTENYTKLRKQ[Nle]AAKKYLNDLKKGGT-NH2
modifications: lactam 21-25
SMILES: CCCC[C@H](NC(=O)[C@H](CCC(N)=O)NC(=O)[C@H](CCCCN)NC(=O)[C@H](CCCNC(=N)N)NC(=O)[C@H](CC(C)C)NC(=O)[C@H](CCCCN)NC(=O)[C@@H](NC(=O)[C@H](Cc1ccc(O)cc1)NC(=O)[C@H](CC(N)=O)NC(=O)[C@H](CCC(=O)O)NC(=O)[C@@H](NC(=O)[C@H](Cc1ccccc1)NC(=O)[C@@](C)(NC(=O)[C@H](C)NC(=O)[C@H](CC(=O)O)NC(=O)[C@H](C)NC(=O)[C@H](Cc1c[nH]cn1)NC(C)=O)C(C)C)[C@@H](C)O)[C@@H](C)O)C(=O)N[C@@H](C)C(=O)N[C@@H](C)C(=O)N[C@@H](CCCCN)C(=O)N[C@H]1CCCCNC(=O)C[C@@H](C(=O)N[C@@H](CC(C)C)C(=O)N[C@@H](CCCCN)C(=O)N[C@@H](CCCCN)C(=O)NCC(=O)NCC(=O)N[C@H](C(N)=O)[C@@H](C)O)NC(=O)[C@H](CC(N)=O)NC(=O)[C@H](CC(C)C)NC(=O)[C@H](Cc2ccc(O)cc2)NC1=O
B3: Ac-His-Ser-Asp-Ala-MeVal-Phe-Thr-Glu-Asn-Tyr-Thr-Lys-Leu-Arg-Lys-Arg-Nle-Ala-Ala-Lys-Lys-Tyr-Leu-Asn-Asp-Leu-Lys-Lys-Gly-Gly-Thr-NH2 (peptide)
peptide: Ac-HSDA[αMeV]FTENYTKLRKR[Nle]AAKKYLNDLKKGGT-NH2
modifications: lactam 21-25
SMILES: CCCC[C@H](NC(=O)[C@H](CCCNC(=N)N)NC(=O)[C@H](CCCCN)NC(=O)[C@H](CCCNC(=N)N)NC(=O)[C@H](CC(C)C)NC(=O)[C@H](CCCCN)NC(=O)[C@@H](NC(=O)[C@H](Cc1ccc(O)cc1)NC(=O)[C@H](CC(N)=O)NC(=O)[C@H](CCC(=O)O)NC(=O)[C@@H](NC(=O)[C@H](Cc1ccccc1)NC(=O)[C@@](C)(NC(=O)[C@H](C)NC(=O)[C@H](CC(=O)O)NC(=O)[C@H](CO)NC(=O)[C@H](Cc1c[nH]cn1)NC(C)=O)C(C)C)[C@@H](C)O)[C@@H](C)O)C(=O)N[C@@H](C)C(=O)N[C@@H](C)C(=O)N[C@@H](CCCCN)C(=O)N[C@H]1CCCCNC(=O)C[C@@H](C(=O)N[C@@H](CC(C)C)C(=O)N[C@@H](CCCCN)C(=O)N[C@@H](CCCCN)C(=O)NCC(=O)NCC(=O)N[C@H](C(N)=O)[C@@H](C)O)NC(=O)[C@H](CC(N)=O)NC(=O)[C@H](CC(C)C)NC(=O)[C@H](Cc2ccc(O)cc2)NC1=O
B4: Ac-His-Ala-Asp-Ala-MeVal-Phe-Thr-Glu-Asn-Tyr-Thr-Lys-Leu-Arg-Lys-Gln-Nle-Ala-Ala-Lys-Lys-Tyr-Leu-Asn-Asp-Leu-Leu-Lys-Gly-Gly-Thr-NH2 (peptide)
peptide: Ac-HADA[αMeV]FTENYTKLRKQ[Nle]AAKKYLNDLLKGGT-NH2
modifications: lactam 21-25
SMILES: CCCC[C@H](NC(=O)[C@H](CCC(N)=O)NC(=O)[C@H](CCCCN)NC(=O)[C@H](CCCNC(=N)N)NC(=O)[C@H](CC(C)C)NC(=O)[C@H](CCCCN)NC(=O)[C@@H](NC(=O)[C@H](Cc1ccc(O)cc1)NC(=O)[C@H](CC(N)=O)NC(=O)[C@H](CCC(=O)O)NC(=O)[C@@H](NC(=O)[C@H](Cc1ccccc1)NC(=O)[C@@](C)(NC(=O)[C@H](C)NC(=O)[C@H](CC(=O)O)NC(=O)[C@H](C)NC(=O)[C@H](Cc1c[nH]cn1)NC(C)=O)C(C)C)[C@@H](C)O)[C@@H](C)O)C(=O)N[C@@H](C)C(=O)N[C@@H](C)C(=O)N[C@@H](CCCCN)C(=O)N[C@H]1CCCCNC(=O)C[C@@H](C(=O)N[C@@H](CC(C)C)C(=O)N[C@@H](CC(C)C)C(=O)N[C@@H](CCCCN)C(=O)NCC(=O)NCC(=O)N[C@H](C(N)=O)[C@@H](C)O)NC(=O)[C@H](CC(N)=O)NC(=O)[C@H](CC(C)C)NC(=O)[C@H](Cc2ccc(O)cc2)NC1=O

Experiments:
VPAC2 receptor [1] = biological target: T1, VPAC2 receptor; assay: Sup-T1 cAMP agonist assay; format: cell-based; settings: human T-lymphoid cell line Sup-T1 expressing VPAC2 receptor; cAMP EIA; 5 min at room temperature; read-out: Sup-T1 cAMP EC50
Outline: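 Sup-T1 human T-lymphoid cells with endogenous VPAC2 (RPMI 1640, 25 mM HEPES, 10% FBS) were plated at 4×10^4 cells/well and exposed to compound for 5 min at room temperature. After lysis, cAMP was measured by enzyme immunoassay. EC50 came from a sigmoidal fit of 7-concentration dose-response data.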

[2] = biological target: T2, human neutrophil elastase; assay: Peptide stability to neutrophil elastase (RP HPLC ESI MS); settings: halftime with human neutrophil elastase 1 to 2 μg/mL in PBS, ambient temperature, normalized to halftime of the reference standard
Procedure: The proteolytic stabilities of peptide analogs were established with reversed phase high pressure liquid chromatography (RP HPLC) electrospray ionization mass spectrometry (ESI MS). Peptide analogs were incubated with human neutrophile elastase and the quantity of undigested analogs was determined by ESI MS at appropriate time points. Multiple peptide analogs could be included in one experiment as long as they could be differentiated by HPLC retention time and/or by molecular weight. Ac-His Ac-[sequence]Nle-[sequence]NH2 was used in all experiments as a control and as a reference standard. The simultaneous use of multiple peptide analogs together with a reference standard allowed for compensation for variations in the proteolytic fidelity of the enzyme over the multiple experiments. Integrated ion currents obtained for the individual undigested peptide were used for quantitation. For calculation of halftime first-order kinetic behavior was assumed and all calculations were normalized to the halftime of the reference standard.
Peptide stock solutions were prepared in water to a concentration of 2.5 mg/mL. Unless in use, all stock solutions were kept at −20° C. […] Concentrations of the peptide analogs were adjusted accordingly. In order to do the proteolytic digestion, peptides were dissolved in phosphate buffered saline (PBS) to a concentration of 0.1 mg/mL. As many as six different peptide analogs were mixed into one 50 μL reaction volume. The reference standard was added to all experiments as a reference and internal standard. Elastase (Human Neutrophil, Calbiochem, Cat # 324681) was added from an elastase stock solution to a concentration of 1 to 2 μg/mL. Different amounts of the enzyme were chosen to compensate for the differences in the proteolytic stabilities of the peptide analogs. Previously, a stock solution of elastase was prepared in water at a concentration of 1 mg/mL. Small aliquots of the enzyme stock solution were kept at −20° C. to better maintain the enzyme activity by limiting the number of thaw and freeze cycles.
The digestion was done at ambient temperature in an autosampler tube within the autosampler of the HPLC system (Agilent 1100 Series). For a time course, 5 μL aliquots were injected in 70 minute intervals onto the reversed phase HPLC column (Phenomenex, Luna C18, 3μ, 100 ↑, 150×2.00 mm). For the starting time point an aliquot was injected just prior to the addition of the proteolytic enzyme. A total of eight time points could be recorded from one experiment, including the starting point. Peptides were separated on the reversed phase column with a 50 minute gradient of 5% to 30% organic phase. The aqueous phase was 0.05% (v/v) of trifluoroacetic acid in water and the organic one was 0.045% (v/v) of trifluoroacetic acid in acetonitrile. Absorbances were recorded at 214 and 280 nm respectively. All of the column effluent was introduced into the turbo V source of the electrospray ionization mass spectrometer (ABI 4000 QTrap LC/MS/MS System). Mass spectra were acquired in Q3MS mode in a mass range to include all triply charged ions of the non degraded peptide analogs. Care was taken to assure that peptide analogs could clearly be differentiated either by the chromatographic retention time or by the difference in molecular weight. Relative quantities of the respective undigested peptide analog were calculated from the integrated total ion current. A window of 2.5 Da was chosen and the manufacturer's software was used to integrate the individual ion currents. The overall halftime of an individual peptide analog was calculated by assuming first-order kinetic behavior and was normalized with respect to the halftime of the reference standard.

[3] = system: LPS-induced lung inflammation in male C57BL/6 mice; assay: LPS-induced lung inflammation in male C57BL/6 mice (BAL neutrophilia); format: in vivo; settings: BAL fluid neutrophilia
Procedure: C57bl/6 mice are pretreated with vehicle or drug prior to an aerosol expose to lipopolysacchride (LPS, 500 μg/ml in sterile saline) for 15-30 minutes. The aerosol is generated by a Pari Ultra neb jet nebulizer, the outlet of which is connected to a small clear plastic chamber [H×W×D, 10.7×25.7×11 cm (4×10×4.5 in)] containing the animals. Bronchoalveolar lavage (BAL) is performed 24 hr later to determine the intensity of cell inflammation. BAL procedure is performed as described below.
Mice are pretreated with vehicle or drug prior to an intranasal administration of lipopolysacchride (0.05-0.3 mg/kg in sterile saline; 50 μl total volume, 25 μl/nostril). Intranasal administration is performed by presenting small droplets of the dosing solution at the nostril using a 25-50 μl eppendorff pipet. BAL is performed 3 to 24 h post LPS challenged as described above to determine the intensity of cell inflammation.
24 h following LPS exposure, animals are anesthetized with pentobarbital (80-100 mg/kg, i.p.), ketamine/xyzaline (80-120 mg/kg/2-4 mg/kg, i.p.) or urethane (1.5-2.4 g/kg, i.p.); and through a small midline neck incision (15-20 mm), the trachea is exposed and cannulated with 20-gauge tubing adapter. Lungs are lavaged with 2×1 ml sterile Hank's balanced salt solution without Ca++ and Mg++(HBSS). Lavage fluid is recovered after 30 sec by gentle aspiration and pooled for each animal. Samples are then centrifuged at 2000 rpm for 10 minutes at 5° C. Supernatant is aspirated, and red blood cells are lysed from the resulting pellet with 0.5 ml distilled water for 30 sec before restoring osmolarity to the remaining cells by the addition of 5 ml of HBSS. Samples are recentrifuged at 2000 rpm for 10 minutes at 5° C. and supernatant aspirated. The resulting pellet is resuspended in 1 ml of HBSS. Total cell number is determined by Trypan Blue (Sigma Chemical, St. Louis, Mo.) exclusion from an aliquot of cell suspension using a hemocytometer or coulter counter. For differential cell counts, an aliquot of the cell suspension is centrifuged in a Cytospin (5 min, 1300 rpm; Shandon Southern Instruments, Sewickley, Pa.) and the slides fixed and stained with a modified Wright's stain (Hema 3 stain kit, Fisher Scientific). Standard morphological criteria is used in classifying at least 300 cells under light microscopy. Data in Table 3 is expressed as BAL cells×10^4/animal for neutrophils and total cells, or percent inhibition of the LPS induced BAL fluid neutrophilia response.

VPAC2 receptor [4] = biological target: T3, VPAC2 receptor; assay: cell-based or functional assay

Row | Molecule | EC50 (VPAC2 receptor [1]) [nM] | Relative elastase stability [2] | Sup-T1 cAMP EC50 (VPAC2 receptor [4]) [nM] | further results
1 | CCCC[C@H](NC(=O)[C@H](CCCNC(=N)N)NC(=O)[C@H](CCCCN)NC(=O)[C@H](CCCNC(=N)N)NC(=O)[C@H](CC(C)C)NC(=O)[C@H](CCCCN)NC(=O)[C@@H](NC(=O)[C@H](Cc1ccc(O)cc1)NC(=O)[C@H](CC(N)=O)NC(=O)[C@H](CCC(=O)O)NC(=O)[C@@H](NC(=O)[C@H](Cc1ccccc1)NC(=O)[C@H](CO)NC(=O)[C@H](C)NC(=O)[C@H](CC(=O)O)NC(=O)[C@H](CO)NC(=O)[C@H](Cc1c[nH]cn1)NC(C)=O)C(C)O)C(C)O)C(=O)N[C@@H](CCC(=O)O)C(=O)N[C@@H](C)C(=O)N[C@@H](CCCCN)C(=O)N[C@H]1CCCCNC(=O)C[C@@H](C(=O)N[C@@H](CC(C)C)C(=O)N[C@@H](CCCCN)C(=O)N[C@@H](CCCCN)C(=O)NCC(=O)NCC(=O)N[C@H](C(N)=O)C(C)O)NC(=O)[C@H](CC(N)=O)NC(=O)[C@H](CC(C)C)NC(=O)[C@H](Cc2ccc(O)cc2)NC1=O (stereo partly shown) [Example 15] (Ac-HSDASF[Thr(3ξ)]ENY[Thr(3ξ)]KLRKR[Nle]EAKKYLNDLKKGG[Thr(3ξ)]-NH2; lactam 21-25) | 117 | 4.8 |  | Inhibition of LPS-induced neutrophilia ([3]; Dose 0.01%): + (+ 10-30%)
2 | CCCC[C@H](NC(=O)[C@H](CCC(N)=O)NC(=O)[C@H](CCCCN)NC(=O)[C@H](CCCNC(=N)N)NC(=O)[C@H](CC(C)C)NC(=O)[C@H](CCCCN)NC(=O)[C@@H](NC(=O)[C@H](Cc1ccc(O)cc1)NC(=O)[C@H](CC(N)=O)NC(=O)[C@H](CCC(=O)O)NC(=O)[C@@H](NC(=O)[C@H](Cc1ccccc1)NC(=O)[C@@H](NC(=O)[C@H](C)NC(=O)[C@H](CC(=O)O)NC(=O)[C@H](CO)NC(=O)[C@H](Cc1c[nH]cn1)NC(C)=O)C(C)O)C(C)O)C(C)O)C(=O)N[C@@H](C)C(=O)N[C@@H](C)C(=O)N[C@@H](CCCCN)C(=O)N[C@H]1CCCCNC(=O)C[C@@H](C(=O)N[C@@H](CC(C)C)C(=O)N[C@@H](CCCCN)C(=O)N[C@@H](CCCCN)C(=O)NCC(=O)NCC(=O)N[C@H](C(N)=O)C(C)O)NC(=O)[C@H](CC(N)=O)NC(=O)[C@H](CC(C)C)NC(=O)[C@H](Cc2ccc(O)cc2)NC1=O (stereo partly shown) [Example 1] (Ac-HSDA[Thr(3ξ)]F[Thr(3ξ)]ENY[Thr(3ξ)]KLRKQ[Nle]AAKKYLNDLKKGG[Thr(3ξ)]-NH2; lactam 21-25) | 38 | 3.9 |  | Inhibition of LPS-induced neutrophilia ([3]; Dose 0.1%): + (+ 10-30%)
3 | B1 |  |  | 9.45 | 
4 | B2 |  |  | 4.75 | 
5 | B3 |  |  | 10.5 | 
6 | B4 |  |  | 4.07 | 
